Measurements from EP1066315B1 (University of Dundee, priority 1998, dated 2008).
Residues, ends and D or L forms follow the SMILES beside them. *: point of attachment. Fmoc = O=C(OCC1c2ccccc2-c2ccccc21)*

Test system: peripheral blood mononuclear cells (PBMC) / autologous TTCF specific T cell clones
Experiment: TTCF antigen presentation by PBMC, read out as proliferation of autologous T cell clones
Format: cell-based, human
Description: The invention will now be described by reference to the following Examples and Figures wherein • Figure 1: Processing of TTCF by a leupeptin-insensitive cysteine endopeptidase activity. (a) TTCF was digested in vitro in the presence of disrupted lysosomes (1-2 µg) in the presence or absence of iodoacetamide (1 mM), leupeptin, E64 or pepstatin (each at 0.1 mg/ml). Digestions were in 0.1 M NH4 acetate at pH 4.5 or Na2HPO4, pH 6.0 or 7.0. After 4 hours at 37°C, the reactions were separated by Tris-tricine SDS-PAGE and stained with Coomassie Blue. (b) Cleavage sites: TTCF digestion products were separated by SDS PAGE and electrophoretically transferred to nitrocellulose membrane. Individual fragments numbered 1-6 were subjected to 5 cycles of Edman degradation. N-terminal sequence obtained is shown in bold following upstream residues from TTCF (tetanus toxin numbering). The N-terminal sequence of His-tagged TTCF was obtained for fragments 1 and 3. (c) Residues Asn 1184 and Glu 1184 in TTCF were mutated to alanine (see Methods) and digestions performed as before. The mutation abolishes cleavage at the mutated site but not at the first site (doublet at 47 kD). In this experiment cleavage of the third site was minimal. • Figure 2: TTCF is processed by an asparaginyl endopeptidase. (a) Chromatography of the TTCF processing activity on Mono-S resin. Fractions eluted by NaCl gradient were incubated with the substrates Z-Ala-Ala-Asn-NHMec or Z-Phe-Arg-NHMec in the presence or absence of E64 (trans-epoxysuccinyl-L-leucylamido-(4-guanidino)butane). […] (b) Fractions as above were incubated with 10 µg TTCF in the presence or absence of E64 for 4 hours at 37°C prior to SDS-PAGE analysis. (c) Each fraction was analysed by SDS-PAGE and Western blotting. Electrophoretically transferred material was probed with an affinity purified antiserum raised against the peptide KGIGSGKVLKSGPQC from human legumain^1. • Figure 3: Peptide inhibitors of AEP block asparaginyl endopeptidase activity and TTCF processing in vitro and in vivo. (a) TTCF was digested with purified AEP (legumain from pig kidney) in the presence or absence of 0.2 mg/ml of the peptides indicated. […] (b) Purified AEP or a crude lysosomal protease mixture were incubated with Z-Ala-Ala-Asn-NHMec, Z-Phe-Arg-NHMec (cathepsins L&B) or Z-Val-Val-Ala NHMec (cathepsin S) in the presence of increasing concentrations of AENK or AEQK. Release of 7-amino-4-methyl coumarin was measured after 10, 20 or 30 minutes. […] At different times the cells were washed, fixed in 0.05 % glutaraldehyde and co-cultured with autologous TTCF specific T cell clones. […] Proteins obtained from commercial sources, as described in the literature or custom peptides were digested with purified pig kidney legumain at pH 5.5 in the presence of 1 mM DTT. […] When present peptide was maintained during antigen pulsing at 1 mg/ml (a) or 2 mg/ml (b). At different times the cells were washed, fixed in 0.05 % glutaraldehyde and antigen presentation measured using proliferation of different autologous TTCF-specific T cell clones. c, AEP pre-processing of TTCF speeds antigen presentation. […] Presentation was measured after 60 minutes of antigen pulsing using EBV B cells.
If AEP plays a role in TTCF processing in antigen presenting cells then sufficiently high levels of the competing AENK peptide might be expected to interfere with normal class II MHC loading of TTCF epitopes. Following a 15 minute preincubation with or without tetrapeptides, freshly isolated peripheral blood mononuclear cells (PBMC) were incubated with TTCF antigen in the continued presence or absence of the peptides. At different times, the cells were washed, fixed and then co-cultured with different autologous T cell clones to assess expression of different peptide/MHC complexes. […] At later times there was some recovery of presentation of these epitopes as expected for a competitive inhibitor. […]

[1] = PBMC, 1 mg/ml peptide, 30 µg/ml TTCF, after 60 minutes of antigen pulsing

`C[C@H](NC(=O)OCC1c2ccccc2-c2ccccc21)C(=O)N[C@@H](CCC(=O)O)C(=O)N[C@@H](CC(N)=O)C(=O)N[C@@H](CCCCN)C(N)=O` [AENK, Ala-Glu-Asn-Lys-NH] (Fmoc-AENK-NH2) was tested, and the “presentation to T cell clone AK 6” value [1] was “profoundly inhibited”, the “presentation to T cell clones AK 20 and AK 90” value [1] was “undetectable” and the “presentation to other clones recognising other regions of TTCF (eg AK 111, 71 and 33)” value (PBMC, 1 mg/ml peptide, 30 µg/ml TTCF, Fig 3c) was “not affected”. For the same compound, the “presentation to most clones (eg AK 5, 90 & 6) at early times” value (PBMC, 1 mg/ml peptide, between 30 and 60 minutes of antigen pulsing, Fig 9a) was “undetactable” and the “inhibitory effect on presentation when TTCF pre-digested in vitro by AEP is used” value (TTCF pre-digested in vitro by AEP, data not shown) was “could be overridden”.
